Patent US11834450B2, “Compounds having ((3-nitrophenyl)sulfonyl)acetamide as BCL-2 inhibitors” (Eil Therapeutics, Inc., priority 2021, dated 2023)

What was measured:
RS4-11 cells = assay: Cell viability assay RS4-11 (CellTiter-Glo); type: cell-based; conditions: Homo sapiens, 72 h; RS4-11 cells, 3 days, CellTiter-Glo; read-out: RS4-11 (CC50 code)
Experimental: (§1) Assay Condition: Used culture medium for HEK293-DMEM (PanEco, Cat #C420), for the rest of the cell lines—culture medium RPMI-1640 (PanEco, Cat #C363).
(§2) Assay Procedure: Compounds were prepared as 200× stocks with serial dilution in 100% DMSO with a final concentration of 1×. Dispersed 40 μl in 384-well plates at a concentration of 2000 cells per well for HEK293 and at a concentration of 4000 cells per well for the rest of the cell lines using a robotic station Biomek (Beckman). Before adding compounds, the cells were incubated at 37° C. (HEK293 were incubated for a day before adding compounds).
(§3) A dilution plate was prepared by pouring 78 μl of the appropriate culture medium using a robotic station Biomek (Beckman). Sequentially, using a robotic station, 2 μl of substances were taken and added to 78 μl of culture medium (dilution of compounds 40×). Took from there 10 μl and added to the plates to the cells (dilution of compounds 5×). The plates were incubated for 3 days at a temperature 37° C. After 3 days, 10 μl of CellTiter-Glo (Promega) was added to the cells and the luminescence was measured.

MOLT-4 cells = assay: Cell viability assay MOLT-4 (CellTiter-Glo); type: cell-based; conditions: Homo sapiens, 72 h; MOLT-4 cells, 3 days, CellTiter-Glo; read-out: MOLT-4 (CC50 code)
Experimental: as §1, §2, §3

[1] = Cell viability assay HEK293 (CellTiter-Glo); type: cell-based; conditions: human, HEK293 cells, read-out: HEK293 (CC50 code)
Experimental: as §1, §2, §3

[2] = tested on: caspase-3 and -7 activities in RS4-11 cells; assay: Cas-3/7 activation (Caspase-Glo 3/7) in RS4-11 cells; type: cell-based; conditions: Homo sapiens, 3.5 h at 37° C. and 30 min at r.t., read-out: Cas-3/7 (EC50 code)
Experimental: Assay Principle: The Caspase-Glo 3/7 Assay is homogeneous, luminescent assay that measures caspase-3 and -7 activities. The assay provides a luminogenic caspase-3/7 substrate, which contains the tetrapeptide sequence DEVD, in a reagent optimized for caspase activity.
Assay Procedure: Incubate RS4-11 cells with varying concentrations of test compounds for 3.5 h in a humidified incubator at 37° C. and 5% CO2 and 30 min at r.t. Add 15 μl Caspase-Glo reagent to each well and incubate the plate for 30 min at r.t. Read on ClarioStar Plus instrument.
Materials: Promega Caspase-Glo (Promega, #8212); Frozen RS4-11 cells; 384-well white plate (Corning, #3570).
Instrumentation: ClarioStar Plus; Biomek FX for liquid handling (Beckman Coulter).

BCL-XL = target: T1, BCL-XL (Homo sapiens, UniProt Q07817); assay: BCL-XL TR-FRET Assay (primary PPI inhibition); type: binding; conditions: 60 min incubation; read-out: BCLxL (IC50 code, BCL-XL TR-FRET)
T1 construct: purchased BPS Bioscience #50223
T1 sequence (Q07817 whole entry): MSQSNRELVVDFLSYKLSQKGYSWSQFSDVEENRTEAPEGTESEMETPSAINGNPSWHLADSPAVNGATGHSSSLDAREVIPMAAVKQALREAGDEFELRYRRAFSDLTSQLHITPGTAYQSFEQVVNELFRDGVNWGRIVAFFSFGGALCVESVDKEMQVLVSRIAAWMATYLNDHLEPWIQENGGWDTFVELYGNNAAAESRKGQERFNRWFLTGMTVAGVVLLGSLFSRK
Experimental: BCL-XL TR-FRET Assay (BPS Bioscience, #50223) Assay Condition: The following assay concentrations and times were used: 10.5 ng BCL-XL, 5 ul of 1:100 anti-His Tb-labeled donor, 5 ul of 1:100 Dye-labeled acceptor, 5 ul of 1:80 BCL-XL Peptide Ligand, and 2 ul of test compound, with 60 min incubation time. The results of the assay were read using a Clariostar (BMG Labtech) plate reader with the following parameters: TR FRET, 340 ex/620 and 665 em; 60 μsec Delay; and 500 μsec integration.

BCL-2 = target: T2, BCL-2 (Homo sapiens, UniProt P10415); assay: BCL-2 TR-FRET Assay (primary PPI inhibition); type: binding; conditions: 60 min incubation; read-out: BCL2 (IC50 code, BCL-2 TR-FRET)
T2 construct: purchased BPS Bioscience #50222
T2 sequence (P10415 whole entry): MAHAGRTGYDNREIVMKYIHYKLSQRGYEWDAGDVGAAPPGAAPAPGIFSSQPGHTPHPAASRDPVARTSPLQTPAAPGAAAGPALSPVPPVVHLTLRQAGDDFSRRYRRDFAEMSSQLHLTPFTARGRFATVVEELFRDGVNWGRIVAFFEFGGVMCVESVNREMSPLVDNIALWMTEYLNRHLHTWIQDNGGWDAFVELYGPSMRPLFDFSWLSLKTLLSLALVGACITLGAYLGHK

Row | Compound | CC50 (RS4-11 cells) [nM] | CC50 (MOLT-4 cells) [nM] | CC50 at 3 days [1] [nM] | EC50 [2] [nM] | IC50 (BCL-XL) [nM] | IC50 (BCL-2) [nM]
1 | O=C(NS(=O)(=O)c1ccc(NCC2CCOCC2)c([N+](=O)[O-])c1)c1ccc(N2CCN(C[C@@H]3Cc4cc(Cl)ccc4CN3C(=O)C3CC3)CC2)cc1Oc1cnc2[nH]ccc2c1 [Compound 42, 4-[4-[[(3S)-6-chloro-2-(cyclopropanecarbonyl)-3,4-dihydro-1H-isoquinolin-3-yl]methyl]piperazin-1-yl]-N-[3-nitro-4-(tetrahydropyran-4-ylmethylamino)phenyl]sulfonyl-2-(1H-pyrrolo[2,3-b]pyridin-5-yloxy)benzamide] | > 200 | 2000 to 10000 | > 25000 | > 250 | – | –
2 | CC1=CC[C@H](CN2CCN(c3ccc(C(=O)NS(=O)(=O)c4ccc(NCC5CCOCC5)c([N+](=O)[O-])c4)c(Oc4cnc5[nH]ccc5c4)c3)CC2)[C@@H](c2ccc(Cl)cc2)C1 [Compound 31, 4-[4-[[(1S,6S)-6-(4-chlorophenyl)-4-methyl-cyclohex-3-en-1-yl]methyl]piperazin-1-yl]-N-[3-nitro-4-(tetrahydropyran-4-ylmethylamino)phenyl]sulfonyl-2-(1H-pyrrolo[2,3-b]pyridin-5-yloxy)benzamide] | 100 to 200 | 2000 to 10000 | 10000 to 25000 | 100 to 250 | – | –
3 | O=C(NS(=O)(=O)c1ccc(NCC2CCOCC2)c([N+](=O)[O-])c1)c1ccc(N2CCC(CN3C(=O)C4(CCCC4)C3c3ccc(Cl)cc3)CC2)cc1Oc1cnc2[nH]ccc2c1 (centres unmarked) [Compound 1, 4-[4-[[1-(4-chlorophenyl)-3-oxo-2-azaspiro[3.4]octan-2-yl]methyl]-1-piperidyl]-N-[3-nitro-4-(tetrahydropyran-4-ylmethylamino)phenyl]sulfonyl-2-(1H-pyrrolo[2,3-b]pyridin-5-yloxy)benzamide] | > 200 | 2000 to 10000 | > 25000 | – | > 4000 | 10 to 50
4 | CC(C)C(=O)N1C[C@H](CN2CCN(c3ccc(C(=O)NS(=O)(=O)c4ccc(NCC5CCOCC5)c([N+](=O)[O-])c4)c(Oc4cnc5[nH]ccc5c4)c3)CC2)[C@@H](c2ccc(Cl)cc2)C1 [Compound 30, 4-[4-[[(3S,4S)-4-(4-chlorophenyl)-1-(2-methylpropanoyl)pyrrolidin-3-yl]methyl]piperazin-1-yl]-N-[3-nitro-4-(tetrahydropyran-4-ylmethylamino)phenyl]sulfonyl-2-(1H-pyrrolo[2,3-b]pyridin-5-yloxy)benzamide] | > 200 | 2000 to 10000 | > 25000 | > 250 | – | –
5 | Cn1ncc(Oc2cc(N3CCC(CN4CCCCC4c4ccc(Cl)cc4)CC3)ccc2C(=O)NS(=O)(=O)c2ccc(NCC3CCOCC3)c([N+](=O)[O-])c2)cc1=O (centres unmarked) [Compound 65, 4-[4-[[2-(4-chlorophenyl)-1-piperidyl]methyl]-1-piperidyl]-2-(1-methyl-6-oxo-pyridazin-4-yl)oxy-N-[3-nitro-4-(tetrahydropyran-4-ylmethylamino)phenyl]sulfonyl-benzamide] | > 200 | > 10000 | 10000 to 25000 | – | > 4000 | > 50
6 | C[C@]1(O)CC[C@H](CN2CCN(c3ccc(C(=O)NS(=O)(=O)c4ccc(NCC5CCOCC5)c([N+](=O)[O-])c4)c(Oc4cnc5[nH]ccc5c4)c3)CC2)[C@@H](c2ccc(Cl)cc2)C1 [Compound 74, 4-[4-[[(1S,2S,4S)-2-(4-chlorophenyl)-4-hydroxy-4-methyl-cyclohexyl]methyl]piperazin-1-yl]-N-[3-nitro-4-(tetrahydropyran-4-ylmethylamino)phenyl]sulfonyl-2-(1H-pyrrolo[2,3-b]pyridin-5-yloxy)benzamide] | > 200 | 2000 to 10000 | 10000 to 25000 | – | 2000 to 4000 | 10 to 50
7 | O=C1CC[C@H](CN2CCN(c3ccc(C(=O)NS(=O)(=O)c4ccc(NCC5CCOCC5)c([N+](=O)[O-])c4)c(Oc4cnc5[nH]ccc5c4)c3)CC2)[C@@H](c2ccc(Cl)cc2)N1 [Compound 70, 4-[4-[[(2S,3R)-2-(4-chlorophenyl)-6-oxo-3-piperidyl]methyl]piperazin-1-yl]-N-[3-nitro-4-(tetrahydropyran-4-ylmethylamino)phenyl]sulfonyl-2-(1H-pyrrolo[2,3-b]pyridin-5-yloxy)benzamide] | > 200 | > 10000 | 10000 to 25000 | – | > 4000 | > 50
8 | O=C(NS(=O)(=O)c1ccc(NCC2CCOCC2)c([N+](=O)[O-])c1)c1ccc(N2CCN(C(c3ccccc3)c3ccccc3)CC2)cc1Oc1ccc2[nH]ccc2c1 [Compound 19, 4-(4-benzhydrylpiperazin-1-yl)-2-(1H-indol-5-yloxy)-N-[3-nitro-4-(tetrahydropyran-4-ylmethylamino)phenyl]sulfonyl-benzamide] | > 200 | > 10000 | > 25000 | – | > 4000 | > 50
9 | O=C(NS(=O)(=O)c1ccc(NCC2CCOCC2)c([N+](=O)[O-])c1)c1ccc(N2CCN(C[C@@H]3CC(F)CN3c3ccc(Cl)cc3)CC2)cc1Oc1cnc2[nH]ccc2c1 (stereo partly drawn) [Compound 66, 4-[4-[[(2S)-1-(4-chlorophenyl)-4-fluoro-pyrrolidin-2-yl]methyl]piperazin-1-yl]-N-[3-nitro-4-(tetrahydropyran-4-ylmethylamino)phenyl]sulfonyl-2-(1H-pyrrolo[2,3-b]pyridin-5-yloxy)benzamide] | > 200 | 2000 to 10000 | 10000 to 25000 | – | > 4000 | > 50
10 | O=C(NS(=O)(=O)c1ccc(NCC2CCOCC2)c([N+](=O)[O-])c1)c1ccc(N2CCN(C[C@H]3[C@H](c4ccc(Cl)cc4)[C@@H]4C=C[C@H]3C4)CC2)cc1Oc1cnc2[nH]ccc2c1 [Compound 68, 4-[4-[[(1R,2R,3R,4S)-3-(4-chlorophenyl)-2-bicyclo[2.2.1]hept-5-enyl]methyl]piperazin-1-yl]-N-[3-nitro-4-(tetrahydropyran-4-ylmethylamino)phenyl]sulfonyl-2-(1H-pyrrolo[2,3-b]pyridin-5-yloxy)benzamide] | > 200 | 2000 to 10000 | 10000 to 25000 | – | > 4000 | > 50
11 | O=C(NS(=O)(=O)c1ccc(NCC2CCOCC2)c([N+](=O)[O-])c1)c1ccc(N2CCC(CN3CCCCC3c3ccc(Cl)cc3)CC2)cc1Oc1cnc2[nH]ccc2c1 (centres unmarked) [Compound 47, 4-[4-[[2-(4-chlorophenyl)-1-piperidyl]methyl]-1-piperidyl]-N-[3-nitro-4-(tetrahydropyran-4-ylmethylamino)phenyl]sulfonyl-2-(1H-pyrrolo[2,3-b]pyridin-5-yloxy)benzamide] | > 200 | 2000 to 10000 | 10000 to 25000 | > 250 | – | 10 to 50
12 | O=C(NS(=O)(=O)c1ccc(NCC2CCOCC2)c([N+](=O)[O-])c1)c1ccc(N2CCN(CC3CCC=CC3c3ccc(Cl)cc3)CC2)cc1Oc1cnc2[nH]ccc2c1 (centres unmarked) [Compound 67, 4-[4-[[2-(4-chlorophenyl)cyclohex-3-en-1-yl]methyl]piperazin-1-yl]-N-[3-nitro-4-(tetrahydropyran-4-ylmethylamino)phenyl]sulfonyl-2-(1H-pyrrolo[2,3-b]pyridin-5-yloxy)benzamide] | – | – | – | > 250 | – | 10 to 50
13 | O=C(NS(=O)(=O)c1ccc(NCC2CCOCC2)c([N+](=O)[O-])c1)c1ccc(N2CCC(CN3CCCCCC3c3ccc(Cl)cc3)CC2)cc1Oc1cnc2[nH]ccc2c1 (centres unmarked) [Compound 44, 4-[4-[[2-(4-chlorophenyl)azepan-1-yl]methyl]-1-piperidyl]-N-[3-nitro-4-(tetrahydropyran-4-ylmethylamino)phenyl]sulfonyl-2-(1H-pyrrolo[2,3-b]pyridin-5-yloxy)benzamide] | > 200 | 2000 to 10000 | > 25000 | > 250 | – | > 50
